Experimental data taken from PubChem BioAssay AID248 (DTP/NCI, 2004).
“And” between values parts separate entries of the source, which are not always exact repeats. Equal entries are not always repeated. Inconclusive results and toxic doses are left out. Cut-off read from the data, not from the text of the source: active = T/C of 150% or more; inactive = T/C below 125%.

Test system: L1210 leukemia ip in BDF1 mice, survival T/C
Test: NCI In Vivo Anticancer Drug Screen. Data for tumor model L1210 Leukemia (intraperitoneal) in B6D2F1 (BDF1) mice
Conditions: endpoint: mean survival time, higher = longer survival
Procedure, shortened: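 Antitumor effect is assessed in tumor-bearing animals. Survival in the compound arm is compared with a vehicle-dosed control arm and expressed as their quotient.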

[1] = dose: 12.5 mg/kg/injection, schedule: Q01DX009 (ip), vehicle: saline with Tween-80
[2] = dose: 100.0 mg/kg/injection, schedule: Q04DX002 (ip), vehicle: saline with Tween-80
[3] = dose: 100.0 mg/kg/injection, schedule: Q04DX003 (ip), vehicle: saline with Tween-80
[4] = dose: 200.0 mg/kg/injection, schedule: Q04DX002 (ip), vehicle: saline with Tween-80
[5] = dose: 200.0 mg/kg/injection, schedule: Q04DX003 (ip), vehicle: saline with Tween-80
[6] = dose: 400.0 mg/kg/injection, schedule: Q01DX009 (ip), vehicle: saline with Tween-80
[7] = dose: 400.0 mg/kg/injection, schedule: Q04DX002 (ip), vehicle: saline with Tween-80
[8] = dose: 400.0 mg/kg/injection, schedule: Q04DX003 (ip), vehicle: saline with Tween-80
[9] = dose: 100.0 mg/kg/injection, schedule: Q01DX009 (ip), vehicle: Klucel (hydroxypropylcellulose) (HPC)
[10] = dose: 200.0 mg/kg/injection, schedule: Q01DX009 (ip), vehicle: Klucel (hydroxypropylcellulose) (HPC)
[11] = dose: 400.0 mg/kg/injection, schedule: Q01DX009 (ip), vehicle: Klucel (hydroxypropylcellulose) (HPC)
[12] = dose: 100.0 mg/kg/injection, schedule: Q01DX001 (ip), vehicle: carboxymethylcellulose (CMC)
[13] = dose: 200.0 mg/kg/injection, schedule: Q01DX001 (ip), vehicle: carboxymethylcellulose (CMC)
[14] = dose: 400.0 mg/kg/injection, schedule: Q01DX001 (ip), vehicle: carboxymethylcellulose (CMC)
[15] = dose: 100.0 mg/kg/injection, schedule: Q01DX001 (ip), vehicle: saline
[16] = dose: 200.0 mg/kg/injection, schedule: Q01DX001 (ip), vehicle: saline
[17] = dose: 400.0 mg/kg/injection, schedule: Q01DX001 (ip), vehicle: saline
[18] = dose: 100.0 mg/kg/injection, schedule: Q01DX009 (ip), vehicle: saline with Tween-80
[19] = dose: 200.0 mg/kg/injection, schedule: Q01DX009 (ip), vehicle: saline with Tween-80
[20] = dose: 50.0 mg/kg/injection, schedule: Q01DX001 (ip), vehicle: saline
[21] = dose: 100.0 mg/kg/injection, schedule: Q04DX002 (ip), vehicle: Klucel (hydroxypropylcellulose) (HPC)
[22] = dose: 200.0 mg/kg/injection, schedule: Q04DX002 (ip), vehicle: Klucel (hydroxypropylcellulose) (HPC)
[23] = dose: 50.0 mg/kg/injection, schedule: Q01DX009 (ip), vehicle: saline with Tween-80

Measured: T/C

O=C(/C=C/c1ccccc1)NC(=S)Nc1ccccc1C(F)(F)F
inactive: [1] 93 % of control and 100 % of control | dose: 100.0 mg/kg/injection, schedule: Q01DX001 (ip), vehicle: saline with Tween-80 92 % of control | [2] 91 % of control | [3] 103 % of control | dose: 200.0 mg/kg/injection, schedule: Q01DX001 (ip), vehicle: saline with Tween-80 97 % of control | [4] 95 % of control and 101 % of control | [5] 91 % of control | dose: 400.0 mg/kg/injection, schedule: Q01DX001 (ip), vehicle: saline with Tween-80 112 % of control | [6] 86 % of control | [7] 93 % of control and 95 % of control | [8] 91 % of control

CC(C)CC(C=NCC(CCN1CCOCC1)(CC(C)C)c1cccc2ccccc12)(CCN1CCOCC1)c1cccc2ccccc12 (configuration not stated)
inactive: [9] 94 % of control | [10] 90 % of control | [11] 92 % of control

CC1NCc2c(N)ncnc21 (configuration not stated)
inactive: [12] 106 % of control | [13] 112 % of control | [14] 98 % of control

CCOP(=S)(NN=C1CCCC1)OCC
inactive: [15] 95 % of control | [16] 95 % of control

CC(=O)c1cc2c(Br)cccc2oc1=O
inactive: [15] 91 % of control | [16] 98 % of control | [17] 95 % of control

O=C(/C=C/c1ccccc1)Nc1ccc2ccccc2c1
inactive: [18] 107 % of control and 108 % of control | [2] 102 % of control and 114 % of control | [3] 92 % of control | [19] 96 % of control and 108 % of control | [4] 96 % of control and 102 % of control | [5] 100 % of control | [6] 94 % of control and 101 % of control | [7] 93 % of control and 107 % of control | [8] 101 % of control

O=C(Nc1ccc(CCO)cc1)c1cccc(F)c1
inactive: [9] 96 % of control | [10] 107 % of control | [11] 91 % of control

Nc1ccc2ccc3ccc4ccccc4c3c2c1
inactive: dose: 100.0 mg/kg/injection, schedule: Q01DX001 (ip), vehicle: Klucel (hydroxypropylcellulose) (HPC) 97 % of control | dose: 100.0 mg/kg/injection, schedule: Q04DX003 (ip), vehicle: Klucel (hydroxypropylcellulose) (HPC) 104 % of control | dose: 200.0 mg/kg/injection, schedule: Q01DX001 (ip), vehicle: Klucel (hydroxypropylcellulose) (HPC) 103 % of control | dose: 200.0 mg/kg/injection, schedule: Q04DX003 (ip), vehicle: Klucel (hydroxypropylcellulose) (HPC) 113 % of control | dose: 400.0 mg/kg/injection, schedule: Q01DX001 (ip), vehicle: Klucel (hydroxypropylcellulose) (HPC) 100 % of control | dose: 400.0 mg/kg/injection, schedule: Q04DX003 (ip), vehicle: Klucel (hydroxypropylcellulose) (HPC) 90 % of control

CCCCS(=O)(=O)OCCCCOS(=O)(=O)CCCC
inactive: dose: 240.0 mg/kg/injection, schedule: Q01DX Z (ip), vehicle: saline 100 % of control | dose: 360.0 mg/kg/injection, schedule: Q01DX Z (ip), vehicle: saline 115 % of control | dose: 810.0 mg/kg/injection, schedule: Q01DX Z (ip), vehicle: saline 90 % of control

Nc1nc(N)c2cc(NCc3ccc(F)cc3)ccc2n1
inactive: dose: 3.13 mg/kg/injection, schedule: Q01DX009 (ip), vehicle: saline with Tween-80 90 % of control | dose: 6.25 mg/kg/injection, schedule: Q01DX009 (ip), vehicle: saline with Tween-80 92 % of control | dose: 6.25 mg/kg/injection, schedule: Q04DX003 (ip), vehicle: saline with Tween-80 100 % of control | [1] 97 % of control

COc1cccc(N=CN(C)C)c1
inactive: [20] 90 % of control | [15] 104 % of control

O=C(Nc1ccc(C(=O)O)cc1)Nc1cccc2ccccc12
inactive: [21] 113 % of control | [22] 93 % of control | dose: 400.0 mg/kg/injection, schedule: Q04DX002 (ip), vehicle: Klucel (hydroxypropylcellulose) (HPC) 97 % of control

O=C(O)c1ccc(OCCc2ccccc2)cc1
inactive: dose: 75.0 mg/kg/injection, schedule: Q01DX001 (ip), vehicle: saline 98 % of control | dose: 75.0 mg/kg/injection, schedule: Q04DX003 (ip), vehicle: saline 103 % of control | dose: 150.0 mg/kg/injection, schedule: Q01DX001 (ip), vehicle: saline 98 % of control | dose: 150.0 mg/kg/injection, schedule: Q04DX003 (ip), vehicle: saline 98 % of control | dose: 300.0 mg/kg/injection, schedule: Q01DX001 (ip), vehicle: saline 95 % of control | dose: 300.0 mg/kg/injection, schedule: Q04DX003 (ip), vehicle: saline 93 % of control

COC(=O)c1ccc(C)cc1C(=O)OC
inactive: [23] 107 % of control | [18] 111 % of control | [19] 107 % of control

O=C(CI)Nc1ccc(Br)cc1
inactive: dose: 6.25 mg/kg/injection, schedule: Q01DX009 (ip), vehicle: Klucel (hydroxypropylcellulose) (HPC) 86 % of control | dose: 12.5 mg/kg/injection, schedule: Q01DX009 (ip), vehicle: Klucel (hydroxypropylcellulose) (HPC) 91 % of control | dose: 25.0 mg/kg/injection, schedule: Q01DX009 (ip), vehicle: Klucel (hydroxypropylcellulose) (HPC) 86 % of control | dose: 35.0 mg/kg/injection, schedule: Q01DX009 (ip), vehicle: Klucel (hydroxypropylcellulose) (HPC) 98 % of control

Nc1ncnc2c1ncn2C1OC(CO)C(O)C1N (configuration not stated)
inactive: dose: 50.0 mg/kg/injection, schedule: Q01DX001 (ip), vehicle: carboxymethylcellulose (CMC) 100 % of control | [20] 103 % of control and 108 % of control | [12] 110 % of control | [15] 98 % of control and 103 % of control | [13] 100 % of control | [16] 90 % of control and 108 % of control | [14] 98 % of control | [17] 100 % of control and 116 % of control

CC(C)N1C(Nc2ccccn2)C(C)(C)C(C)(C)C1Nc1ccccn1 (configuration not stated)
inactive: dose: 100.0 mg/kg/injection, schedule: Q04DX002 (ip), vehicle: gum acacia 110 % of control | dose: 200.0 mg/kg/injection, schedule: Q04DX002 (ip), vehicle: gum acacia 120 % of control | dose: 400.0 mg/kg/injection, schedule: Q04DX002 (ip), vehicle: gum acacia 97 % of control

O=C(NCCNC(=O)c1ccncc1)c1ccccc1
inactive: [12] 93 % of control | [13] 104 % of control | [14] 98 % of control

CC(C)=CCNC(=O)NS(=O)(=O)c1ccc(C)cc1
inactive: dose: 50.0 mg/kg/injection, schedule: Q04DX002 (ip), vehicle: Klucel (hydroxypropylcellulose) (HPC) 104 % of control | [9] 100 % of control | [21] 89 % of control | [10] 107 % of control | [22] 93 % of control | [11] 96 % of control

CSc1ccc(NC(=O)Nc2ccc(N=Nc3ccccc3)cc2)cc1
inactive: [1] 95 % of control | dose: 25.0 mg/kg/injection, schedule: Q01DX009 (ip), vehicle: saline with Tween-80 92 % of control | [23] 95 % of control | dose: 50.0 mg/kg/injection, schedule: Q04DX003 (ip), vehicle: Klucel (hydroxypropylcellulose) (HPC) 87 % of control | dose: 75.0 mg/kg/injection, schedule: Q01DX009 (ip), vehicle: saline with Tween-80 106 % of control | dose: 100.0 mg/kg/injection, schedule: Q01DX001 (ip), vehicle: other 89 % of control | dose: 115.0 mg/kg/injection, schedule: Q01DX009 (ip), vehicle: saline with Tween-80 92 % of control | dose: 170.0 mg/kg/injection, schedule: Q01DX009 (ip), vehicle: saline with Tween-80 90 % of control | dose: 200.0 mg/kg/injection, schedule: Q01DX001 (ip), vehicle: other 89 % of control

CC(C)C(C(=O)O)(c1ccccc1)c1ccccc1
inactive: dose: 100.0 mg/kg/injection, schedule: Q04DX003 (ip), vehicle: saline 101 % of control | dose: 200.0 mg/kg/injection, schedule: Q04DX003 (ip), vehicle: saline 103 % of control | dose: 400.0 mg/kg/injection, schedule: Q04DX003 (ip), vehicle: saline 97 % of control
